ChEMBL document CHEMBL5360618, “PepScaf: Harnessing Machine Learning with In Vitro Selection toward De Novo Macrocyclic Peptides against IL-17C/IL-17RE Interaction” (J Med Chem, 2023)
Positions of bridges follow the written chain, without caps; N, C: chain ends. Residues, ends and D or L forms follow the SMILES beside them.

These compounds were tested against T1, IL17-RE-IL-17C (Homo sapiens, UniProt Q8NFR9+Q9P0M4) (assay: Inhibition of IL-17C/IL-17RE interaction (unknown origin) incubated for 1.5 hrs by ELISA method).
T1 sequence (Q9P0M4 whole entry): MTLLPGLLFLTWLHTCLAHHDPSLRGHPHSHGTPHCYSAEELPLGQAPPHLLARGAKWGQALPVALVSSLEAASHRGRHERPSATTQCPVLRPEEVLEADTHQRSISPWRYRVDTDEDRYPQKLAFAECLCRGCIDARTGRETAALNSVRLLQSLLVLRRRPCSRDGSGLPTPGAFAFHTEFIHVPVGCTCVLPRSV
T1 sequence (Q8NFR9 whole entry): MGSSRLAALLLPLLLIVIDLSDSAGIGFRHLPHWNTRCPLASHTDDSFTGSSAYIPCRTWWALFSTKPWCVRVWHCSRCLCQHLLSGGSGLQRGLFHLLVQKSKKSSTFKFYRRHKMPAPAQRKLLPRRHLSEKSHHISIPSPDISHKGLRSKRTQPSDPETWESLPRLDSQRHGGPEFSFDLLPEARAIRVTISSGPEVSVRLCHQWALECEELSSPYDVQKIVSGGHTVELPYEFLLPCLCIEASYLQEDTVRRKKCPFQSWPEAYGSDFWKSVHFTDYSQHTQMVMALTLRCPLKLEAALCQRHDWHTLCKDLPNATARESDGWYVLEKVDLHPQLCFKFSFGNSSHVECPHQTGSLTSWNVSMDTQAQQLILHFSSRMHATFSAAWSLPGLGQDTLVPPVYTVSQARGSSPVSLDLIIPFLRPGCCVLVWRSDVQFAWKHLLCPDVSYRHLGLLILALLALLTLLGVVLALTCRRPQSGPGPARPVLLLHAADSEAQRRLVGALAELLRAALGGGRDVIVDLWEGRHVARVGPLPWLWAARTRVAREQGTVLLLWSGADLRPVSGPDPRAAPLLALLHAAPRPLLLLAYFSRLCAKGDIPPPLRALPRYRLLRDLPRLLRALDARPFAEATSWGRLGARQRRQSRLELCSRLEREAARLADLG
Format: protein-complex assay

Row | IC50 | SMILES
1 | 6.2 nM | CC[C@H](C)[C@@H]1NC(=O)[C@H](Cc2c[nH]cn2)NC(=O)[C@H](Cc2ccc(O)cc2)NC(=O)CSC[C@@H](C(=O)NCC(N)=O)NC(=O)CNC(=O)[C@H](CC(C)C)NC(=O)[C@H](Cc2c[nH]cn2)NC(=O)CNC(=O)[C@H](Cc2ccc(O)cc2)NC(=O)[C@H](CC(C)C)NC(=O)[C@H](CO)NC(=O)[C@H](Cc2ccccc2)NC(=O)[C@H](Cc2ccc(O)cc2)NC(=O)[C@H](Cc2ccc(O)cc2)NC1=O ({CH2CO}-YHIYYFSLYGHLGCG-NH2; thioether N-14)
2 | > 30000 nM | CC[C@H](C)[C@@H]1NC(=O)[C@H](CCCNC(=N)N)NC(=O)[C@H](Cc2ccc(O)cc2)NC(=O)[C@H](Cc2ccc(O)cc2)NC(=O)[C@H](Cc2c[nH]cn2)NC(=O)[C@H](CCCNC(=N)N)NC(=O)[C@H](Cc2ccc(O)cc2)NC(=O)CSC[C@@H](C(=O)NCC(N)=O)NC(=O)CNC(=O)[C@H](CC(C)C)NC(=O)[C@H](CCC(=O)O)NC(=O)CNC(=O)[C@H](Cc2ccc(O)cc2)NC(=O)[C@H](CC(C)C)NC1=O ({CH2CO}-YRHYYRILYGELGCG-NH2; thioether N-14)
3 | 171 nM | CC[C@H](C)[C@@H]1NC(=O)[C@H](CCCNC(=N)N)NC(=O)[C@H](Cc2ccc(O)cc2)NC(=O)[C@H](Cc2ccccc2)NC(=O)[C@H](Cc2c[nH]cn2)NC(=O)[C@H](Cc2c[nH]cn2)NC(=O)[C@H](Cc2ccc(O)cc2)NC(=O)CSC[C@@H](C(=O)NCC(N)=O)NC(=O)CNC(=O)[C@H](CC(C)C)NC(=O)[C@H](CCC(=O)O)NC(=O)CNC(=O)[C@H](Cc2ccc(O)cc2)NC(=O)[C@H](CC(C)C)NC1=O ({CH2CO}-YHHFYRILYGELGCG-NH2; thioether N-14)
4 | 12 nM | CC[C@H](C)[C@@H]1NC(=O)[C@H](Cc2c[nH]cn2)NC(=O)[C@H](Cc2ccc(O)cc2)NC(=O)CSC[C@@H](C(=O)NCC(N)=O)NC(=O)CNC(=O)[C@H](CC(C)C)NC(=O)[C@H](CC(C)C)NC(=O)CNC(=O)[C@H](Cc2ccc(O)cc2)NC(=O)[C@H](CC(C)C)NC(=O)[C@H](CO)NC(=O)[C@H](C)NC(=O)[C@H](Cc2ccc(O)cc2)NC(=O)[C@H](Cc2ccc(O)cc2)NC1=O ({CH2CO}-YHIYYASLYGLLGCG-NH2; thioether N-14)
5 | > 30000 nM | CC[C@H](C)[C@@H]1NC(=O)[C@H](CCCNC(=N)N)NC(=O)[C@H](Cc2ccc(O)cc2)NC(=O)[C@H](Cc2ccc(O)cc2)NC(=O)[C@@H]2CCCN2C(=O)[C@H](Cc2c[nH]cn2)NC(=O)[C@H](Cc2ccc(O)cc2)NC(=O)CSC[C@@H](C(=O)NCC(N)=O)NC(=O)CNC(=O)[C@H](CC(C)C)NC(=O)[C@H](CCC(=O)O)NC(=O)CNC(=O)[C@H](Cc2ccc(O)cc2)NC(=O)[C@H](CC(C)C)NC1=O ({CH2CO}-YHPYYRILYGELGCG-NH2; thioether N-14)
6 | 328 nM | CC[C@H](C)[C@@H]1NC(=O)[C@H](Cc2c[nH]cn2)NC(=O)[C@H](Cc2ccc(O)cc2)NC(=O)CSC[C@@H](C(=O)NCC(N)=O)NC(=O)CNC(=O)[C@H](CC(C)C)NC(=O)[C@H](CCCCN)NC(=O)[C@H](CCC(N)=O)NC(=O)[C@H](Cc2ccc(O)cc2)NC(=O)[C@H]([C@@H](C)CC)NC(=O)[C@H](CCC(N)=O)NC(=O)[C@H](CCCNC(=N)N)NC(=O)[C@H](Cc2ccc(O)cc2)NC(=O)[C@H](Cc2ccc(O)cc2)NC1=O ({CH2CO}-YHIYYRQIYQKLGCG-NH2; thioether N-14)
7 | 3970 nM | CC[C@H](C)[C@@H]1NC(=O)[C@H](CCCNC(=N)N)NC(=O)[C@H](Cc2ccccc2)NC(=O)[C@H](Cc2ccc(O)cc2)NC(=O)[C@H](Cc2c[nH]cn2)NC(=O)[C@H](Cc2c[nH]cn2)NC(=O)[C@H](Cc2ccc(O)cc2)NC(=O)CSC[C@@H](C(=O)NCC(N)=O)NC(=O)CNC(=O)[C@H](CC(C)C)NC(=O)[C@H](CCC(=O)O)NC(=O)CNC(=O)[C@H](Cc2ccc(O)cc2)NC(=O)[C@H](CC(C)C)NC1=O ({CH2CO}-YHHYFRILYGELGCG-NH2; thioether N-14)
8 | 3.3 nM | CC(C)C[C@@H]1NC(=O)[C@H](CO)NC(=O)CNC(=O)[C@H](Cc2ccc(O)cc2)NC(=O)[C@H](CC(C)C)NC(=O)[C@H](CO)NC(=O)[C@H](Cc2ccc(O)cc2)NC(=O)[C@H](Cc2ccc(O)cc2)NC(=O)[C@H](Cc2ccc(O)cc2)NC(=O)[C@H](C(C)C)NC(=O)[C@H](Cc2c[nH]cn2)NC(=O)[C@H](Cc2ccc(O)cc2)NC(=O)CSC[C@@H](C(=O)NCC(N)=O)NC(=O)CNC1=O ({CH2CO}-YHVYYYSLYGSLGCG-NH2; thioether N-14)

Further lines, the compound ahead of its results:

Row | SMILES | IC50
9 | CC[C@H](C)[C@@H]1NC(=O)[C@H](CCC(=O)O)NC(=O)CNC(=O)[C@H](Cc2ccc(O)cc2)NC(=O)[C@H](CC(C)C)NC(=O)[C@H]([C@@H](C)CC)NC(=O)[C@H](CCCNC(=N)N)NC(=O)[C@H](Cc2ccc(O)cc2)NC(=O)[C@H](Cc2ccc(O)cc2)NC(=O)[C@H](Cc2c[nH]cn2)NC(=O)[C@H](Cc2c[nH]cn2)NC(=O)[C@H](Cc2ccc(O)cc2)NC(=O)CSC[C@@H](C(=O)NCC(N)=O)NC(=O)CNC1=O ({CH2CO}-YHHYYRILYGEIGCG-NH2; thioether N-14) | 422 nM
10 | CC[C@H](C)[C@@H]1NC(=O)[C@H](CCCNC(=N)N)NC(=O)[C@H](Cc2ccc(O)cc2)NC(=O)[C@H](Cc2ccc(O)cc2)NC(=O)C(C)NC(=O)[C@H](Cc2c[nH]cn2)NC(=O)[C@H](Cc2ccc(O)cc2)NC(=O)CSC[C@@H](C(=O)NCC(N)=O)NC(=O)CNC(=O)[C@H](CC(C)C)NC(=O)[C@H](CCC(=O)O)NC(=O)CNC(=O)[C@H](Cc2ccc(O)cc2)NC(=O)[C@H](CC(C)C)NC1=O (single isomer, unassigned) | 529 nM
11 | CC[C@H](C)[C@@H]1NC(=O)[C@H](Cc2c[nH]cn2)NC(=O)[C@H](Cc2ccc(O)cc2)NC(=O)CSC[C@@H](C(=O)NCC(N)=O)NC(=O)CNC(=O)[C@H](CC(C)C)NC(=O)[C@H](CCCNC(=N)N)NC(=O)CNC(=O)[C@H](Cc2ccc(O)cc2)NC(=O)[C@H](CC(C)C)NC(=O)[C@H](CO)NC(=O)[C@H](Cc2ccccc2)NC(=O)[C@H](Cc2ccc(O)cc2)NC(=O)[C@H](Cc2ccc(O)cc2)NC1=O ({CH2CO}-YHIYYFSLYGRLGCG-NH2; thioether N-14) | 3 nM
12 | CC[C@H](C)[C@@H]1NC(=O)CNC(=O)[C@H](Cc2ccc(O)cc2)NC(=O)[C@H](Cc2ccc(O)cc2)NC(=O)[C@H](Cc2c[nH]cn2)NC(=O)[C@H](Cc2c[nH]cn2)NC(=O)[C@H](Cc2ccc(O)cc2)NC(=O)CSC[C@@H](C(=O)NCC(N)=O)NC(=O)CNC(=O)[C@H](CC(C)C)NC(=O)[C@H](CCC(=O)O)NC(=O)CNC(=O)[C@H](Cc2ccc(O)cc2)NC(=O)[C@H](CC(C)C)NC1=O ({CH2CO}-YHHYYGILYGELGCG-NH2; thioether N-14) | > 30000 nM
13 | CC(C)C[C@@H]1NC(=O)[C@H](Cc2c[nH]c3ccccc23)NC(=O)[C@H](Cc2ccccc2)NC(=O)[C@H](CC(N)=O)NC(=O)[C@H](Cc2ccc(O)cc2)NC(=O)[C@H](CO)NC(=O)[C@H](Cc2ccc(O)cc2)NC(=O)[C@H](CCCNC(=N)N)NC(=O)[C@H](CC(C)C)NC(=O)[C@H](CC(=O)O)NC(=O)[C@H](Cc2ccc(O)cc2)NC(=O)CSC[C@@H](C(=O)NCC(N)=O)NC(=O)[C@H](C)NC1=O ({CH2CO}-YDLRYSYNFWLACG-NH2; thioether N-13) | > 30000 nM
14 | CC[C@H](C)[C@@H]1NC(=O)[C@H](Cc2c[nH]cn2)NC(=O)[C@H](Cc2ccc(O)cc2)NC(=O)CSC[C@@H](C(=O)NCC(N)=O)NC(=O)CNC(=O)[C@H](CC(C)C)NC(=O)[C@H](CC(N)=O)NC(=O)CNC(=O)[C@H](Cc2ccc(O)cc2)NC(=O)[C@H](CC(C)C)NC(=O)[C@H]([C@@H](C)CC)NC(=O)[C@H](CCCNC(=N)N)NC(=O)[C@H](Cc2ccc(O)cc2)NC(=O)[C@H](Cc2ccc(O)cc2)NC1=O ({CH2CO}-YHIYYRILYGNLGCG-NH2; thioether N-14) | 4.5 nM
15 | CC(C)C[C@@H]1NC(=O)[C@H](Cc2c[nH]c3ccccc23)NC(=O)[C@H](CC(N)=O)NC(=O)[C@H](CC(=O)O)NC(=O)[C@H](Cc2ccccc2)NC(=O)[C@H](Cc2c[nH]cn2)NC(=O)[C@H](Cc2ccc(O)cc2)NC(=O)CSC[C@@H](C(=O)NCC(N)=O)NC(=O)[C@H](CC(C)C)NC(=O)[C@H](Cc2ccccc2)NC(=O)[C@H](C(C)C)NC(=O)[C@H](CCCNC(=N)N)NC1=O ({CH2CO}-YHFDNWLRVFLCG-NH2; thioether N-12) | > 30000 nM
16 | CC(C)C[C@@H]1NC(=O)[C@H](C)NC(=O)[C@H]([C@@H](C)O)NC(=O)[C@H](C)NC(=O)[C@H](CC(C)C)NC(=O)[C@H](Cc2c[nH]c3ccccc23)NC(=O)[C@H](CO)NC(=O)[C@H](CC(=O)O)NC(=O)[C@H](Cc2ccccc2)NC(=O)[C@H](Cc2c[nH]cn2)NC(=O)[C@H](Cc2ccc(O)cc2)NC(=O)CSC[C@@H](C(=O)NCC(N)=O)NC(=O)[C@H](CCCNC(=N)N)NC1=O ({CH2CO}-YHFDSWLATALRCG-NH2; thioether N-13) | > 30000 nM
17 | CC(C)C[C@@H]1NC(=O)[C@H](Cc2c[nH]c3ccccc23)NC(=O)[C@H](CO)NC(=O)[C@H](CC(=O)O)NC(=O)[C@H](Cc2ccccc2)NC(=O)[C@H](Cc2c[nH]cn2)NC(=O)[C@H](Cc2ccc(O)cc2)NC(=O)CSC[C@@H](C(=O)NCC(N)=O)NC(=O)[C@H](CCCCN)NC(=O)[C@H](CC(C)C)NC(=O)[C@H](CCCNC(=N)N)NC(=O)[C@H](CCCCN)NC(=O)[C@H](C)NC1=O ({CH2CO}-YHFDSWLAKRLKCG-NH2; thioether N-13) | > 30000 nM
